# Test results as given in patent US6906095B2, “Indolylalkylidenehydrazine-carboximidamide derivatives as 5-hydroxytryptamine-6 ligands” (Wyeth, priority 2002, dated 2005).
# Molecular target: T1, human cloned 5-HT6 receptors (Homo sapiens, UniProt P50406)
# T1 construct: expressed in transfected cells; host or cells: Hela cells
# Test: 5-HT6 binding affinity, [3H]-LSD displacement in membranes of Hela cells
# Conditions: not given
# Procedure: The affinity of test compounds for the serotonin 5-HT6 receptor is evaluated in the following manner. Cultured Hela cells expressing human cloned 5-HT6 receptors are harvested and centrifuged at low speed (1,000×g) for 10.0 min to remove the culture media. The harvested cells are suspended in half volume of fresh physiological phosphate buffered saline solution and recentrifuged at the same speed. This operation is repeated. The collected cells are then homogenized in ten volumes of 50 mM Tris.HCl (pH 7.4) and 0.5 mM EDTA. The homogenate is centrifuged at 40,000×g for 30.0 min and the precipitate is collected. The obtained pellet is resuspended in 10 volumes of Tris.HCl buffer and recentrifuged at the same speed. The final pellet is suspended in a small volume of Tris.HCl buffer and the tissue protein content is determined in aliquots of 10-25 μl volumes. Bovine Serum Albumin is used as the standard in the protein determination according to the method described in Lowry et al., J. Biol. Chem., 193:265 (1951). The volume of the suspended cell membranes is adjusted to give a tissue protein concentration of 1.0 mg/ml of suspension. The prepared membrane suspension (10 times concentrated) is aliquoted in 1.0 ml volumes and stored at −70° C. until used in subsequent binding experiments.
# The reaction is allowed to proceed in the dark for 120 min at room temperature, at which time, the bound ligand-receptor complex is filtered off on a 96 well unifilter with a Packard Filtermate® 196 Harvester. The bound complex caught on the filter disk is allowed to air dry and the radioactivity is measured in a Packard TopCount® equipped with six photomultiplier detectors, after the addition of 40.0 μl Microscint®-20 scintillant to each shallow well. The unifilter plate is heat-sealed and counted in a PackardTopCount® with a tritium efficiency of 31.0%.
# Specific binding to the 5-HT6 receptor is defined as the total radioactivity bound less the amount bound in the presence of 10.0 μM unlabeled methiothepin. Binding in the presence of varying concentrations of test compound is expressed as a percentage of specific binding in the absence of test compound. The results are plotted as logit % bound versus log concentration of test compound. Nonlinear regression analysis of data points with a computer assisted program Prism® yields both the IC50 and the Ki values of test compounds with 95% confidence limits.
# The amount of displacement by the test compound is given in percent (%) inhibition and is derived from the following equation: [formula] where B0 is the amount of CPM bound in the presence of the testing agent. NSB represents the CPM bound in the presence of a saturating concentration of a displacer and TB represents the total amount of CPM bound at zero (0) concentration of test compound.
# Alternatively, a linear regression line of decline of data points is plotted, from which the IC50 value can be read off and the Ki value determined by solving the following equation: [formula] where L is the concentration of the radioactive ligand used and KD is the dissociation constant of the ligand for the receptor, both expressed in nM.
# T1 sequence (P50406 whole entry): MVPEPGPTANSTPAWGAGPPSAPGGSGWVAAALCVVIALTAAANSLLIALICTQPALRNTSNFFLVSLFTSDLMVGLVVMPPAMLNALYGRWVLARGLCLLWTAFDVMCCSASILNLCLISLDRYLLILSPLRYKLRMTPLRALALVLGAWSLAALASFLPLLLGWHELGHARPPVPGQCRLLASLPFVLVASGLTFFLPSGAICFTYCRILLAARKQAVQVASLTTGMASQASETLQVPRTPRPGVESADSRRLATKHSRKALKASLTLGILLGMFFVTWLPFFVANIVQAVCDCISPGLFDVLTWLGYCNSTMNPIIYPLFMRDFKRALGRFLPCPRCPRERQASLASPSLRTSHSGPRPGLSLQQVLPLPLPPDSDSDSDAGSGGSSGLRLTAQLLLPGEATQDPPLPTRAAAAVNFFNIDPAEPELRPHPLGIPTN
row,Ki,SMILES
1,26 nM,"CC(=NNC(=N)N)c1cn(S(=O)(=O)c2cccc(Br)c2)c2ccccc12 [Example 32, 2-(1-{1-[(3-bromophenyl)sulfonyl]-1H-indol-3-yl}ethylidene)hydrazinecarboximidamide]"
2,12 nM,"CCCCCNC(=N)NN=C(C)c1cn(S(=O)(=O)c2ccccc2)c2ccccc12 [Example 123, N-Pentyl-2-{1-[1-(phenylsulfonyl)-1H-indol-3-yl]ethylidene}-hydrazinecarboximidamide]"
3,7 nM,"CCC(=NNC(=N)N)c1cn(S(=O)(=O)c2ccccc2)c2ccc(F)cc12 [Example 118, 2-{1-[5-fluoro-1-(phenylsulfonyl)-1H-indol-3-yl]propylidene}hydrazinecarboximidamide]"
4,2 nM,"CCC(=NNC(=N)N)c1cn(S(=O)(=O)c2ccc(N)cc2)c2ccc(F)cc12 [Example 119, 2-(1-{1-[(4-aminophenyl)sulfonyl]-5-fluoro-1H-indol-3-yl}propylidene)hydrazinecarboximidamide]"
5,8 nM,"CC(=NNC(=N)N)c1cn(S(=O)(=O)c2sc(N)nc2C)c2ccccc12 [Example 22, 2-(1-{1-[(2-amino-4-methyl-1,3-thiazol-5-yl)sulfonyl]-1H-indol-3-yl}ethylidene)hydrazinecarboximidamide]"

# Same assay, conditions: test compound dose 10 nM; [3H]-LSD 3.0 nM
row,inhibition at 0.01 µM,SMILES
1,44.3%,"CCCCS(=O)(=O)n1cc(C(=NNC(=N)N)C2CC2)c2cc(Cl)ccc21 [Example 77, 2-[[1-(butylsulfonyl)-5-chloro-1H-indol-3-yl](cyclopropyl)methylidene]hydrazinecarboximidamide]"
2,52%,"CC(=NNC(=N)N)c1cn(S(=O)(=O)c2ccccc2)c2ccc(I)cc12 [Example 17, 2-{1-[5-iodo-1-(phenylsulfonyl)-1H-indol-3-yl]ethylidene}hydrazinecarboximidamide]"

# Same assay, conditions: test compound dose 100 nM; [3H]-LSD 3.0 nM
row,inhibition at 0.1 µM,SMILES
1,38.4%,"CC(=NNC(=N)N)c1cn(S(=O)(=O)c2ccc(-c3ccccn3)s2)c2ccccc12 [Example 53, 2-(1-{1-[(5-pyridin-2-ylthien-2-yl)sulfonyl]-1H-indol-3-yl}ethylidene)hydrazinecarboximidamide]"
2,66.3%,"CCCCC(=NNC(=N)N)c1cn(S(=O)(=O)c2ccccc2)c2ccccc12 [Example 67, 2-{1-[1-(phenylsulfonyl)-1H-indol-3-yl]pentylidene}hydrazinecarboximidamide]"
3,69.4%,"CCCCS(=O)(=O)n1cc(C(C)=NNC(=N)N)c2ccc(F)cc21 [Example 103, 2-{1-[1-(butylsulfonyl)-6-fluoro-1H-indol-3-yl]ethylidene}hydrazinecarboximidamide]"
4,23.9%,"CC(=NNC(=N)N)c1cn(C(=O)Oc2ccccc2)c2ccccc12 [Example 128, phenyl 3-(1-{2-[amino(imino)methyl]hydrazono}ethyl)-1H-indole-1-carboxylate]"
5,76.2%,"CC(=NNC(=N)N)c1cn(S(=O)(=O)c2cccc(Br)c2)c2ccccc12 [Example 32, 2-(1-{1-[(3-bromophenyl)sulfonyl]-1H-indol-3-yl}ethylidene)hydrazinecarboximidamide]"
6,34%,"CCCCCNC(=N)NN=C(C)c1cn(S(=O)(=O)c2ccccc2)c2ccccc12 [Example 123, N-Pentyl-2-{1-[1-(phenylsulfonyl)-1H-indol-3-yl]ethylidene}-hydrazinecarboximidamide]"
7,62.9%,"CC(=NNC(=N)N)c1cn(S(=O)(=O)c2cccc3nsnc23)c2ccccc12 [Example 24, 2-{1-[1-(2,1,3-benzothiadiazol-4-ylsulfonyl)-1H-indol-3-yl]ethylidene}hydrazinecarboximidamide]"
8,43.9%,"CC(=NNC(=N)N)c1cn(S(=O)(=O)c2ccc(S(C)(=O)=O)cc2)c2ccccc12 [Example 48, 2-[1-(1-{[4-(methylsulfonyl)phenyl]sulfonyl}-1H-indol-3-yl)ethylidene]hydrazinecarboximidamide]"
9,39.1%,"CC(=NNC(=N)NCc1ccccc1)c1cn(S(=O)(=O)c2ccccc2)c2ccccc12 [Example 125, N-benzyl-2-{1-[1-(phenylsulfonyl)-1H-indol-3-yl]ethylidene}hydrazinecarboximidamide]"
10,90.5%,"CC(=NNC(=N)N)c1cn(S(=O)(=O)c2sc(N)nc2C)c2ccccc12 [Example 22, 2-(1-{1-[(2-amino-4-methyl-1,3-thiazol-5-yl)sulfonyl]-1H-indol-3-yl}ethylidene)hydrazinecarboximidamide]"
11,33.8%,"CC(=NNC(=N)N)c1cn(S(=O)(=O)c2c(Cl)sc(Cl)c2Br)c2ccccc12 [Example 27, 2-(1-{1-[(4-bromo-2,5-dichlorothien-3-yl)sulfonyl]-1H-indol-3-yl}ethylidene)hydrazinecarboximidamide]"
12,28.2%,"CC(=NNC(=N)N)c1cn(S(=O)(=O)c2ccc([N+](=O)[O-])cc2)c2ccccc12 [Example 52, 2-(1-{1-[(4-nitrophenyl)sulfonyl]-1H-indol-3-yl}ethylidene)hydrazinecarboximidamide]"
13,77.9%,"CC(=NNC(=N)N)c1cn(S(=O)(=O)c2ccccc2)c2ccc([N+](=O)[O-])cc12 [Example 18, 2-{1-[5-nitro-1-(phenylsulfonyl)-1H-indol-3-yl]ethylidene}hydrazinecarboximidamide]"
14,75.2%,"CCCNC(=N)NN=C(C)c1cn(S(=O)(=O)c2ccccc2)c2ccccc12 [Example 124, 2-{1-[1-(phenylsulfonyl)-1H-indol-3-yl]ethylidene}-N-propylhydrazinecarboximidamide]"

# Same assay, conditions: test compound dose 1000 nM; [3H]-LSD 3.0 nM; read-out: % Inhibition
row,inhibition at 1 µM,SMILES
1,89.2%,"COc1ccc(S(=O)(=O)n2cc(C(C)=NNC(=N)N)c3ccc(F)cc32)cc1OC [Example 115, 2-(1-{1-[(3,4-dimethoxyphenyl)sulfonyl]-6-fluoro-1H-indol-3-yl}ethylidene)hydrazinecarboximidamide]"
2,75.6%,"CC(=NNC(=N)N)c1c(-c2ccc(F)c(Cl)c2)n(S(=O)(=O)c2ccccc2)c2ccccc12 [Example 12, 2-{1-[2-(3-chloro-4-fluorophenyl)-1-(phenylsulfonyl)-1H-indol-3-yl]ethylidene}hydrazinecarboximidamide]"
3,46.9%,"CCCCC(=NNC(=N)N)c1cn(S(=O)(=O)c2ccc3ccccc3c2)c2ccc(Cl)cc12 [Example 82, 2-{1-[5-chloro-1-(2-naphthylsulfonyl)-1H-indol-3-yl]pentylidene}hydrazinecarboximidamide]"
4,61.5%,"CCCCC(=NNC(=N)N)c1cn(S(=O)(=O)c2ccc(OC)cc2)c2cc(F)ccc12 [Example 107, 2-(1-{6-fluoro-1-[(4-methoxyphenyl)sulfonyl]-1H-indol-3-yl}pentylidene)hydrazinecarboximidamide]"
5,81.3%,"CCCCC(=NNC(=N)N)c1cn(S(=O)(=O)CCCC)c2cc(F)ccc12 [Example 104, 2-{1-[1-(butylsulfonyl)-6-fluoro-1H-indol-3-yl]pentylidene}hydrazinecarboximidamide]"
6,94.6%,"CC(=NNC(=N)N)c1cn(S(=O)(=O)c2ccccc2)c2cc(F)ccc12 [Example 112, 2-{1-[6-fluoro-1-(phenylsulfonyl)-1H-indol-3-yl]ethylidene}hydrazinecarboximidamide]"
7,83.6%,"COc1ccc(S(=O)(=O)n2cc(C(C)=NNC(=N)N)c3ccccc32)cc1 [Example 61, 2-(1-{1-[(4-methoxyphenyl)sulfonyl]-1H-indol-3-yl}ethylidene)hydrazinecarboximidamide]"
8,53.3%,"COc1ccc(S(=O)(=O)n2c(-c3ccc(Cl)cc3)c(C(C)=NNC(=N)N)c3ccccc32)cc1OC [Example 98, 2-(1-{2-(4-chlorophenyl)-1-[(3,4-dimethoxyphenyl)sulfonyl]-1H-indol-3-yl}ethylidene)hydrazinecarboximidamide]"
9,89.6%,"CC(=NNC(=N)N)c1cn(S(=O)(=O)c2ccc3ccccc3c2)c2ccccc12 [Example 64, 2-{1-[1-(2-naphthylsulfonyl)-1H-indol-3-yl]ethylidene}hydrazinecarboximidamide]"
